In publication PMC6006426, “Effect of tyrosine kinase inhibitors on renal handling of creatinine by MATE1” (Scientific Reports, 2018):
Where two headings read alike, the source gives them in different places.

Columns and labels:
[1] = Clinical plasma pharmacokinetic parameters of TKIs; type: in vivo, human; conditions: for Cmax,u: calculated unbound plasma concentration (Cmax x fu) from cited clinical parameters; for Ctrough,u: calculated unbound trough plasma concentration from cited clinical parameters
Description: Table 2 Pharmacokinetic parameters and obtained IC50, Ki, and Kp,uu values of TKIs. | column: Cmax,u (μM) Ctrough,u (μM)

OCT2 and MATE1 = conditions: for Prediction of SCr increase, Cmax,u: based on Cmax,u (Kp,uu assumed 1), mean ± S.D. (n = 11 subjects' parameters from ref 10); for Prediction of SCr increase, Cmax,u · Kp,uu: based on Cmax,u with Kp,uu incorporated; for Prediction of SCr increase, Cmax,u · Kp,uu / Prediction of SCr increase, Ctrough,u / Prediction of SCr increase, Ctrough,u · Kp,uu: mean ± S.D. (n = 11); for Prediction of SCr increase, Ctrough,u: based on Ctrough,u (Kp,uu assumed 1); for Prediction of SCr increase, Ctrough,u · Kp,uu: based on Ctrough,u with Kp,uu incorporated
Description: In this model, the intrinsic clearances of OCT2 and MATE1 were assumed to be equal. When MATE1 inhibition was predicted from the Cmax,u of drugs, Kp,uu was assumed to be 1.

[2] = set-up: method as in earlier work; conditions: 34-43 (per drug), cited from earlier work; for Ctrough: trough plasma concentration, clinical dosing as in table footnote; for t1/2: clinical half-life; for Cmax: maximum plasma concentration, clinical dosing: crizotinib 250 mg twice a day, gefitinib 250 mg, imatinib 400 mg, pazopanib 800 mg, sorafenib 400 mg, sunitinib 50 mg once a day
[3] = set-up: method as in earlier work; conditions: unbound fraction in plasma; 34-43 (per drug); cited from earlier work
[4] = patients treated with crizotinib, n = 38, 95% CI 21.3–[…]; cited from earlier work
creatinine transporters = conditions: cited from earlier work
[5] = Tissue accumulation (Kp,uu) of TKIs in rat kidney slices; type: in vitro ADME; conditions: male, Wistar, rat kidney slices (0.3 mm thick), pH 7.4, TKI 1 μM, 120 min, C/M ratio 37 °C / 4 °C, mean ± S.E.M. (n = 3 or 4)
Protocol: Male Wistar rats (180 ± 10 g body weight) were purchased from Japan SLC (Hamamatsu, Japan). Rats were housed three per cage with free access to commercial chow and tap water, and were maintained on a 12 h dark/light cycle in an air-controlled room (temperature, 24.0 ± 1 °C; humidity, 55 ± 5%).
Uptake study by rat kidney slices was carried out as described previously, with slight modifications. Whole kidneys of male rats were sliced (0.3 mm thick) with a microslicer (Zero 1; Dosaka EM, Kyoto, Japan). […] Three or four slices per rat, each weighing 5 to 20 mg, were randomly selected and pre-incubated in a 12-well plate with 2.0 ml/well of oxygenated transport buffer at 37 °C for 5 min. After pre-incubation, the kidney slices were placed in transport buffer containing TKIs to initiate the uptake reaction. After uptake at 37 °C for an appropriate time, each slice was rapidly removed from the transport buffer, washed twice in ice-cold transport buffer, blotted on filter paper and weighed. Non-specific adsorption of each substrate was estimated as the absorption on a slice incubated at 4 °C for 1 min. The tissue accumulation of TKIs was measured by liquid chromatography-tandem mass spectrometry (LC-MS/MS) as described below.
The unbound renal proximal tubule epithelial cell-to-medium concentration ratio (Kp,uu) based on the steady-state uptake at 37 °C and 4 °C was defined according to Eq. (4);4 Kp,uu=C/Mratioss,37 °C/C/Mratioss,4 °C
Kp,uu was calculated by dividing C/Mratioss,37 °C by the mean value of C/Mratioss,4 °C .

MATE2K = target: T1, MATE2K (Homo sapiens, UniProt Q86VL8); assay: Uptake of MPP+ by HEK293/MATE2K and mock cells; type: cell-based
T1 construct: expressed in transfected cells; host or cells: HEK293
Protocol: The uptake experiment was conducted as described previously. HEK293 cells were plated at a density of 1.7 × 10^5 cells/cm^2 on 24-well plates and cultured for two days before uptake assay. The cells were pre-incubated with 0.5 ml of transport medium (TM) (125 mM NaCl, 4.8 mM KCl, 1.2 mM KH2PO4, 1.2 mM CaCl2, 1.2 mM MgSO4, 5.6 mM D-glucose, and 25 mM HEPES, pH 7.4) for an appropriate time at 37 °C. Cells for MATE1 assays were pre-incubated in TM containing 30 mM NH4Cl for 20 min to establish an outwardly directed H^+ gradient; this was done concomitantly with the pre-incubation with TKIs. […] Uptake was terminated by washing the cells three times with 0.5 ml of ice-cold TM, and the cells were solubilized in 0.25 ml of 0.01% (v/v) Triton-X. Radioactivity was measured with a liquid scintillation counter (Hitachi Aloka Medical, Ltd., Tokyo, Japan). […] Uptake was terminated by washing the cells three times with ice-cold TM, and intracellular [^14C]creatinine concentration was determined by the method described above.
Experiments were conducted at least twice, and the results are shown as representative values in individual experiments. Uptake by transporter-expressing cells was expressed as the cell-to-medium (C/M) ratio (μL/mg protein), obtained by dividing the uptake amount by the concentration of substrate in the TM. […]

human MATE1 = target: T2, human MATE1 (Homo sapiens, UniProt Q96FL8); assay: Inhibition of [14C]creatinine uptake by HEK293/MATE1 cells; type: cell-based
T2 construct: expressed in transfected cells; host or cells: HEK293
T2 sequence (Q96FL8 1-570): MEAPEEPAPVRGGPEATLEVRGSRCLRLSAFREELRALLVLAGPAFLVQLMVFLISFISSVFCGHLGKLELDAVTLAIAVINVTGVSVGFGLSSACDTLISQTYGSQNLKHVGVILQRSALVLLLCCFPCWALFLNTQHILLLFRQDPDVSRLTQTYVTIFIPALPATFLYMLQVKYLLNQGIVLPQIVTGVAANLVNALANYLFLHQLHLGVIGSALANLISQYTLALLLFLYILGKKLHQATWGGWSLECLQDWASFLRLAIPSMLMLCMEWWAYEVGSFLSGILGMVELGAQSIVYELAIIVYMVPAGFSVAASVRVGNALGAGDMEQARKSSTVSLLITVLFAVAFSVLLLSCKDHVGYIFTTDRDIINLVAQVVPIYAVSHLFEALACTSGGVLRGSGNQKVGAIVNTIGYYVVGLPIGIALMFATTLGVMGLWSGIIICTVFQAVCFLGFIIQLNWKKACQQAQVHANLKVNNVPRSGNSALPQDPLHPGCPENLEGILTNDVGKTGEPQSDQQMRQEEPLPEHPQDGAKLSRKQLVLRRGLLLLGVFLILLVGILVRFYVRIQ
Protocol: (§1) Cells were cultured in Dulbecco’s modified Eagle’s medium (DMEM) supplemented with 10% fetal bovine serum, 100 units/ml penicillin, 100 μg/ml streptomycin, 1 mM pyruvic acid, and 100 μg/ml zeocin for HEK293/OCT2 cells or 400 μg/mL G418 for HEK293/MATE1 and MDCKII/MATE1 cells at 37 °C in a humidified atmosphere of 5% CO2 in air.
The cells were incubated at 37 °C.
Uptake by transporter-expressing cells was expressed as the cell-to-medium (C/M) ratio (μL/mg protein), obtained by dividing the uptake amount by the concentration of substrate in the TM. MATE1- or OCT2-mediated uptake was obtained after subtraction of the uptake by mock cells.
Kinetic parameters for uptake were obtained using the Michaelis-Menten Eq. (2);2 v=Vmax×[C]/Km+[C] where v, Vmax, Km, and [C] are initial uptake rate, maximal uptake rate, Michaelis constant, and substrate concentration, respectively.

human OCT2 = target: T3, human OCT2 (Homo sapiens, UniProt O15244); assay: Inhibition of [14C]creatinine uptake by HEK293/OCT2 cells; type: cell-based; conditions: for IC50: 37 °C, pre/co-incubation, unit inferred, read-out: IC50 or Ki, OCT2
T3 construct: expressed in transfected cells; host or cells: HEK293
T3 sequence (O15244 1-555): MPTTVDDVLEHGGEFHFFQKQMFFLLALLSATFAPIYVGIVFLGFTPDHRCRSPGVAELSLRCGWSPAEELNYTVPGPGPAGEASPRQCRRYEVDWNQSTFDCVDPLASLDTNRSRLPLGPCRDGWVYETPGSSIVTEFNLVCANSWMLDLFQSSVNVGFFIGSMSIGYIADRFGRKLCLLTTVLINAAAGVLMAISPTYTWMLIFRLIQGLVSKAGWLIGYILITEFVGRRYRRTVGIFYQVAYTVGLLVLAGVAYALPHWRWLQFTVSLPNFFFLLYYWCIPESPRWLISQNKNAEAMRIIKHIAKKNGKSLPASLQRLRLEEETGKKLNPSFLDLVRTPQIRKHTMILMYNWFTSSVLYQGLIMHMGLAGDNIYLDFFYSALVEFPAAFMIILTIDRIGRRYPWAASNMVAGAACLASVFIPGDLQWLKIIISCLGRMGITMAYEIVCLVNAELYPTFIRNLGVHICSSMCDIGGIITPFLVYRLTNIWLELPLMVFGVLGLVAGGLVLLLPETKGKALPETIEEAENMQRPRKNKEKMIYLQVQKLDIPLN
Protocol: as §1
The cells were incubated at 37 °C.
Experiments were conducted at least twice, and the results are shown as representative values in individual experiments. Uptake by transporter-expressing cells was expressed as the cell-to-medium (C/M) ratio (μL/mg protein), obtained by dividing the uptake amount by the concentration of substrate in the TM. MATE1- or OCT2-mediated uptake was obtained after subtraction of the uptake by mock cells.

T1 sequence (Q86VL8 1-566 isoform Q86VL8-3): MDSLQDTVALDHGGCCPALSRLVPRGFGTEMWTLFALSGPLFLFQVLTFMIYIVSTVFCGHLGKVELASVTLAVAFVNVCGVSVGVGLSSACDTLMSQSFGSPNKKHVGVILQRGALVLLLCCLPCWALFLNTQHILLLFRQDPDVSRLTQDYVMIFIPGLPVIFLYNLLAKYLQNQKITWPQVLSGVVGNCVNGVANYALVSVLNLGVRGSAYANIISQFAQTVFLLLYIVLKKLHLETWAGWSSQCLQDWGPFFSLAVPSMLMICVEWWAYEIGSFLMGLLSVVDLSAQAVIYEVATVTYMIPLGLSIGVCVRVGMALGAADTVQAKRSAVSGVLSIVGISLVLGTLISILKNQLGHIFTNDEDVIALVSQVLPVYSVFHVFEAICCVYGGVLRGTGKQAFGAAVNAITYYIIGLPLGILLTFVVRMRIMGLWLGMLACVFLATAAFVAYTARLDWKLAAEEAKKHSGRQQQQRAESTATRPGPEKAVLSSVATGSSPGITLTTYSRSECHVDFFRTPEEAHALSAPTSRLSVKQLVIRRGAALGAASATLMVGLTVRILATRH

SMILES | Cmax,u [1] | Prediction of SCr increase, Cmax,u (OCT2 and MATE1) | Prediction of SCr increase, Cmax,u · Kp,uu (OCT2 and MATE1) | Prediction of SCr increase, Ctrough,u (OCT2 and MATE1) | Prediction of SCr increase, Ctrough,u · Kp,uu (OCT2 and MATE1) | Ctrough [2] | fu [3] | Kp uu at 2 h, 1 μM [5] | t1/2 [2] | Cmax [2] | other results
C[C@@H](Oc1cc(-c2cnn(C3CCNCC3)c2)cnc1N)c1c(Cl)ccc(F)c1Cl [Crizotinib, crizotinib] | 0.0848 µM | 14.5 ± 4.6% | 25.3 ± 8.8% | 11.7 ± 3.6% | 21.1 ± 7.1% | 0.708 µM | 0.093 | – | – | – | Ctrough,u [1]: 0.0658 µM; Prediction of SCr increase, Cmax,u (OCT2 and MATE1; listed as crizotinib): 14.5%; Prediction of SCr increase, Cmax,u · Kp,uu (OCT2 and MATE1; listed as crizotinib): 25.3%; Predicted increase of SCr in the clinical context (OCT2 and MATE1; summary statement of the prediction): more than 10%; Clinically reported eGFR reduction [4]: 23.9%
COc1c(N2CC[C@@H](C3(N)CC3)C2)ccc2c(=O)c(C(=O)O)cn([C@@H]3C[C@@H]3F)c12 [DX-619] | – | – | – | – | – | – | – | – | – | – | Reduction of creatinine clearance (creatinine transporters): up to 51.4%
COc1cc2ncnc(Nc3ccc(F)c(Cl)c3)c2cc1OCCCN1CCOCC1 [Gefitinib, gefitinib] | 0.0936 µM | 2.47 ± 1.05% | – | – | – | – | 0.09 | 2.22 ± 0.05 | 23.8 h | 1.04 µM | –
Cc1ccc(NC(=O)c2ccc(CN3CCN(C)CC3)cc2)cc1Nc1nccc(-c2cccnc2)n1 [Imatinib, imatinib] | – | – | – | – | – | – | – | 2.39 ± 0.29 | – | – | –
CC(=O)[O-].C[n+]1ccc(-c2ccccc2)cc1 [MPP^+, N-methyl-4-phenylpyridinium acetate] | – | – | – | – | – | – | – | – | – | – | Uptake of MPP+ by HEK293/MATE2K cells (MATE2K; HEK293/MATE2K cells): 19.1 μL/mg/1 min; Uptake of MPP+ by mock cells (MATE2K; mock cells): 5.76 μL/mg/1 min
Cc1ccc(Nc2nccc(N(C)c3ccc4c(C)n(C)nc4c3)n2)cc1S(N)(=O)=O [Pazopanib, pazopanib] | 0.0101 µM | 1.16 ± 0.87% | 1.86 ± 0.95% | 0.837 ± 0.842% | 1.22 ± 0.87% | 50.6 µM | 0.000106 | 2.05 ± 0.14 | 30.9 h | 95.1 µM | IC50 (human MATE1; [14C]creatinine 2.6 μM, 2 min, 37 °C, pre/co-incubation, unit inferred, read-out: IC50 or Ki, MATE1): 0.47 ± 0.032 µM; Ctrough/IC50 or Ki, MATE1 (human MATE1; ratio of trough (unbound) concentration to IC50 or Ki for MATE1): 0.0114; Inhibition of [14C]creatinine uptake by HEK293/OCT2 cells (in words) (human OCT2; pazopanib 1, 3, 10, 30 μM, [14C]creatinine 2.6 μM, 1 min): not by pazopanib; Ctrough/IC50 or Ki, OCT2 (human OCT2; ratio of trough (unbound) concentration to IC50 or Ki for OCT2): 0.0000386
CNC(=O)c1cc(Oc2ccc(NC(=O)Nc3ccc(Cl)c(C(F)(F)F)c3)cc2)ccn1 [Sorafenib, sorafenib] | – | 1.47 ± 0.90% | 3.10 ± 1.17% | – | – | – | 0.0029 | 2.76 ± 0.27 | 28.1 h | 14.6 µM | IC50 (human OCT2; [14C]creatinine 2.6 μM, 1 min): 40.8 ± 9.3 µM
CCN(CC)CCNC(=O)c1c(C)[nH]c(/C=C2\C(=O)Nc3ccc(F)cc32)c1C [Sunitinib, sunitinib] | 0.0068 µM | 1.65 ± 0.92% | 2.73 ± 1.10% | 1.19 ± 0.87% | 1.86 ± 0.95% | 0.0829 µM | – | 3.93 ± 0.15 | 40 to 60 h | 0.136 µM | IC50 (human OCT2; [14C]creatinine 2.6 μM, 1 min): 0.266 ± 0.03 µM; Ctrough,u [1]: 0.00414 µM
